Data reported in patent US20070041944A1, “Treating tumors by ENH dislocation of ID proteins” (THE TRUSTEES OF COLUMBIA UNIVERSITY IN THE CITY OF NEW YORK, priority 2005, published 2007).
One block for each molecule: values may come before it.

Tests used:
SH-N and SH-F cells = assay: Cell-cycle exit of neuroblastoma cells treated with RA; format: cell-based, human; details: RA 0.1 μM
From the text: Human neuroblastoma cells are frequently used as in vitro models to recapitulate differentiation of the nervous system. To ask whether ENH expression is regulated during differentiation of the nervous system, clonal derivatives of the human neuroblastoma cell line SK-N-SH, the SK-N-SH-N (SH-N) and SK-N-SH-F (SH-F) cells were used. These cells, which lack N-myc gene amplification, have been used to characterize the cell-cycle exit associated with differentiation of neural cells. When treated with a low concentration of RA (0.1 μM) SH-N cells undergo differentiation along the neuronal lineage, whereas SH-F cells acquire an epithelioid morphology and rapidly enter into a senescent-like state. Both cell types arrest in the G1 phase of the cell cycle within 48 h of treatment with RA. […] Although higher concentrations of RA led to marked inhibition of N-myc and Id2 gene expression in N-myc-amplified neuroblastoma cells, it was noted that RA at the concentration of 0.1 μM caused little change of Id2 expression in the SK-N-SH derivatives. However, a late decrease of Id2 protein was evident in RA-treated SH-N cells (FIG. 3D).

[1] = tested on: Flag-Id2 in SK-N-SH cells; assay: Quantitative analysis of subcellular localization of Flag-Id2 after RA (double immunofluorescence); format: cell-based, human; details: 48 h, SK-N-SH expressing Flag-Id2, three independent experiments
Procedure: Quantitative Analysis of Subcellular Localization of Id2 and siRNA Experiments: SK-N-SH-Flag-Id2 cells untreated or treated with RA for 48 h were fixed in 4% paraformaldehyde. Flag-Id2 and endogenous ENH were immunostained by using Flag-M2 (Sigma) and ENH antibodies, respectively. SK-N-SH cells were transfected with vector or p3XFlag-ENH and immunostained by using Flag-M2 and Id2 (Zymed) antibodies. For silencing of ENH, ENH siRNA (siGenome Smartpool reagent M-006930-00) and control, nontargeting (siGenome Smartpool reagent D-001206-13) siRNA mixtures were purchased from Dharmacon. SK-N-SH cells stably expressing Flag-Id2 were treated with vehicle control or RA for 48 h and transfected with 60 nM siRNAs by using Lipofectamine 2000 (Invitrogen). Thirty-six hours after transfection cells were fixed in 4% paraformaldehyde and immunostained by using Flag-M2 antibodies. Parallel cultures were analyzed by Western blot. Secondary antibodies were FITC- or Cy3-conjugated anti-rabbit and Cy3-conjugated anti-mouse (Jackson ImmunoResearch). Nuclei were counterstained with DAPI. Slides were mounted in 90% glycerol in PBS and analyzed on an Olympus epifluorescence microscope. The percentage of cells displaying Id2 staining in the nucleus was scored by counting at least 500 cells from triplicate samples. […]

Flag-Id2 = assay: cell-based or functional assay
[2] = molecular target: T1, full length Id2 as bait (entire coding sequence of human Id2 in bait plasmid pDBLeu) (human, UniProt Q02363 1-134); assay: yeast two-hybrid screen of a human fetal brain cDNA library
T1 construct: Yeast two-hybrid bait (Proquest system, pDBLeu); also called Id2 bait
T1 sequence (looked up): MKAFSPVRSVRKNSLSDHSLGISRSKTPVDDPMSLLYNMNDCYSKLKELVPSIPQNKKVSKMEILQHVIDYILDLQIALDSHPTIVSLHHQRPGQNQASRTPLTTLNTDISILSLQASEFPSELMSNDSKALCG
Procedure: Yeast Two-Hybrid Screening: The Proquest system (Invitrogen Life Technologies, Carlsbad, Calif.) was used for yeast two-hybrid screening. The entire coding sequence of human Id2 was subcloned into the bait plasmid pDBLeu. A human fetal brain cDNA library in pPC86 was transformed into MaV203 yeast cells and screened for interactors with the bait plasmid according to the manufacturer's protocol.
To identify new interactors of Id2 from the nervous system, a yeast two-hybrid screen was conducted with a human fetal brain cDNA library using full length Id2 as bait. This screen yielded 47 validated cDNA clones corresponding to four different Id2-associated proteins. Among them, 24 clones code for Id2, 13 clones code for the bHLH transcription factor E2-2, eight clones code for the bHLH transcription factor HEB, and two clones code for the PDZ-LIM protein ENH. All Id2 and bHLH clones retain an intact HLH domain. This finding is consistent with the essential role of the HLH domain for heterodimerization. The presence of endogenous Id2 is explained by the strong homodimerization ability of Id2 and its abundant expression in the fetal brain.

Molecule: CC1=C(/C=C/C(C)=C/C=C/C(C)=C/C(=O)O)C(C)(C)CCC1 [RA, retinoic acid]
- time to arrest in the G1 phase of the cell cycle (SH-N and SH-F cells): ≤ 48 h
- cells with Flag-Id2 relocated to the cytoplasm ([1]; ENH positive cells after RA): ~60%
- cells with Flag-Id2 relocated to the cytoplasm ([1]; ENH-negative cells after RA): 10%

- percentage of cells with cytoplasmic Flag-Id2 after RA treatment (double immunofluorescence) (Flag-Id2): 60%
Molecule: endogenous ENH from RA-treated SK-N-SH neuroblastoma cells (from UniProt Q96HC4 2-596)

- binding result [2]: binds
B1: C-terminal fragment of ENH (amino acids 461-596) of the two two-hybrid clones (other)
chain: EKGALYCELCYEKFFAPECGRCQRKILGEVINALKQTWHVSCFVCVACGKPIRNNVFHLEDGEPYCETDYYALFGTICHGCEFPIEAGDMFLEALGYTWHDTCFVCSVCCESLEGQTFFSKKDKPLCKKHAHSVNF
notes: Prey clones from a human fetal brain cDNA library in pPC86; also called ENH clones
